Test systems include 786-0 renal; HCC-2998 colon; HCT-116 colon; HCT-15 colon; HS 578T breast; IGROV1 ovarian; OVCAR-3 ovarian; PC-3 prostate; SF-539 CNS; SK-OV-3 ovarian; U251 CNS; UACC-257 melanoma.
Holding throughout (assay): NCI anticancer screen, dose series, 48 h

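Cells were grown in 96-well plates and exposed to each compound for 48 hours at five concentrations; endpoints were interpolated linearly between bracketing concentrations, or set to the highest concentration if not reached. TGI: concentration producing complete growth inhibition.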

Consider `CCN(CC)CCN(C)c1ccc(CO)c2c1C(=O)c1ccccc1S2=O` (configuration not stated), for which the TGI in the assay with 786-0 renal is 3.22 µM; in the assay on HCC-2998 colon it was 2.99 µM; in the assay on HCT-116 colon, 3.97 µM; with HCT-15 colon, 12.9 µM; in the assay with HS 578T breast, 28.5 µM; in the assay on IGROV1 ovarian, 32.8 µM. For the same compound, the TGI worked out at 4.11 µM in the assay on OVCAR-3 ovarian; 46 µM in the assay with PC-3 prostate; 3.61 µM in the assay with SF-539 CNS; 32.4 µM in the assay on SK-OV-3 ovarian; 3.27 µM in the assay with U251 CNS; 3.55 µM in the assay on UACC-257 melanoma.
Turning to `COC(=O)CCNC(=O)OCc1ccccc1`, the TGI in the assay with 786-0 renal, in the assay with HCC-2998 colon, in the assay with HCT-116 colon, in the assay on HCT-15 colon, with HS 578T breast and in the assay on IGROV1 ovarian was over 100 µM in each case. Also, the TGI with OVCAR-3 ovarian, in the assay with PC-3 prostate, with SF-539 CNS, with SK-OV-3 ovarian, in the assay with U251 CNS and in the assay on UACC-257 melanoma was over 100 µM each time.
On to `CCCCc1ccc(Nc2nc(OC)c3ncn(C4CC(O)C(CO)O4)c3n2)cc1` (configuration not stated), for which the TGI in the assay with 786-0 renal came out at 30.9 µM; in the assay with HCC-2998 colon, 20.4 µM; in the assay on HCT-116 colon, 29.8 µM; with HCT-15 colon, 34.3 µM; with HS 578T breast, 42 µM; in the assay with IGROV1 ovarian, 27.2 µM. Also, the TGI in the assay with OVCAR-3 ovarian worked out at 54.3 µM; in the assay with PC-3 prostate, 37.5 µM; with SF-539 CNS it was 29 µM; with SK-OV-3 ovarian, 27.8 µM; in the assay on U251 CNS, 40 µM; in the assay on UACC-257 melanoma, 34.6 µM.
Take `CC(C)=CCC[C@@H](C)C1=C(O)C(Nc2ccccc2Cl)=C(C)C(=O)C1=O`: the TGI was over 52 µM in the assay on 786-0 renal; over 56.6 µM in the assay with HCC-2998 colon; over 50.9 µM in the assay with HCT-116 colon; over 75 µM in the assay on HCT-15 colon; over 69.9 µM in the assay on HS 578T breast; 46.5 µM in the assay on IGROV1 ovarian. Besides, the TGI with OVCAR-3 ovarian was over 75 µM; in the assay with PC-3 prostate, over 64.2 µM; with SF-539 CNS, 35.7 µM; in the assay on SK-OV-3 ovarian, over 75 µM; in the assay on U251 CNS it was over 75 µM; in the assay with UACC-257 melanoma, over 75 µM.
With `Nc1ncnc2c1ncn2C1CCC(CP(=O)(O)O)C1` (configuration not stated), the TGI in the assay with 786-0 renal, in the assay on HCC-2998 colon, with HCT-116 colon, in the assay with HCT-15 colon, in the assay on HS 578T breast and in the assay with IGROV1 ovarian was over 100 µM each time. The TGI with OVCAR-3 ovarian, in the assay with PC-3 prostate, with SF-539 CNS, in the assay on SK-OV-3 ovarian, in the assay on U251 CNS and in the assay with UACC-257 melanoma was over 100 µM in each case.
In the case of `CC(C)C(OC(=O)c1ccc(NCC2=CC(=O)C=CC2=O)cc1)C(C)C`, the TGI in the assay with 786-0 renal was 22.8 µM; in the assay on HCC-2998 colon it was 27.9 µM; with HCT-116 colon it was 24.6 µM; in the assay with HCT-15 colon, 10.4 µM; with HS 578T breast, 16.7 µM; in the assay on IGROV1 ovarian, 5.14 µM. Moreover, the TGI is 23.4 µM in the assay on OVCAR-3 ovarian; 29.9 µM with PC-3 prostate; 4.1 µM in the assay on SF-539 CNS; 42.1 µM in the assay with SK-OV-3 ovarian; 13.5 µM in the assay with U251 CNS; 25.9 µM with UACC-257 melanoma.
For `COc1c(C(=O)NCCN(CCNC(=O)c2cccc(-c3cccc(C(=O)N(C)C)c3OC)c2OC)CCNC(=O)c2cccc(-c3cccc(C(=O)N(C)C)c3OC)c2OC)cccc1-c1cccc(C(=O)N(C)C)c1OC`, the TGI in the assay with 786-0 renal was over 100 µM; in the assay with HCC-2998 colon, 33.1 µM; in the assay with HCT-116 colon it was 41.4 µM; in the assay with HCT-15 colon it was over 100 µM; with HS 578T breast it was 87.3 µM; in the assay on IGROV1 ovarian, over 100 µM. Moreover, the TGI was 32.5 µM in the assay with OVCAR-3 ovarian; over 100 µM in the assay with PC-3 prostate; 36.2 µM in the assay on SF-539 CNS; over 100 µM in the assay on SK-OV-3 ovarian; over 100 µM in the assay with U251 CNS; 75.5 µM with UACC-257 melanoma.
On to `O=C1Nc2nccnc2C(=O)N2CCC[C@@H]12`, for which the TGI with 786-0 renal, in the assay with HCC-2998 colon, with HCT-116 colon, with HCT-15 colon, in the assay on HS 578T breast and in the assay with IGROV1 ovarian was over 100 µM in each case. Moreover, the TGI with OVCAR-3 ovarian, in the assay on PC-3 prostate, in the assay with SF-539 CNS, with SK-OV-3 ovarian, in the assay on U251 CNS and in the assay on UACC-257 melanoma was over 100 µM throughout.
On to `CCOP(=O)(OCC)C(C(=O)OC)C(=O)C(=O)Nc1cccc(O)c1` (configuration not stated), for which the TGI with 786-0 renal, in the assay on HCC-2998 colon, in the assay with HCT-116 colon, with HCT-15 colon, in the assay with HS 578T breast and in the assay on IGROV1 ovarian was over 100 µM each time. The TGI in the assay on OVCAR-3 ovarian, with PC-3 prostate, in the assay with SF-539 CNS, in the assay on SK-OV-3 ovarian, in the assay with U251 CNS and in the assay with UACC-257 melanoma was over 100 µM in each case.
Regarding `CCc1ccc(COC(=O)C2=C(C)NC(C)=C(C(=O)OCc3ccc(CC)cn3)C2C2=COCCO2)nc1`, the TGI was 69.4 µM in the assay on 786-0 renal; 37.7 µM in the assay with HCC-2998 colon; 31 µM with HCT-116 colon; 71.4 µM in the assay with HCT-15 colon; 37.7 µM in the assay on HS 578T breast; over 100 µM in the assay on IGROV1 ovarian. The TGI turned out to be 54.7 µM in the assay with OVCAR-3 ovarian; 43.1 µM in the assay on PC-3 prostate; 27.7 µM in the assay with SF-539 CNS; 45.8 µM with SK-OV-3 ovarian; 35.4 µM in the assay with U251 CNS; 41.5 µM in the assay with UACC-257 melanoma.
As to `O=C(NNC(=S)NC1CCCCC1)C12CC3CC(CC(C3)C1)C2`, the TGI in the assay on 786-0 renal, with HCC-2998 colon, with HCT-116 colon, in the assay with HCT-15 colon, in the assay on HS 578T breast and in the assay on IGROV1 ovarian was over 100 µM each time. Moreover, the TGI in the assay on OVCAR-3 ovarian, in the assay on PC-3 prostate, with SF-539 CNS, in the assay on SK-OV-3 ovarian, with U251 CNS and with UACC-257 melanoma was over 100 µM each time.
